{
  "source": "patent US20060115440A1",
  "about": "“Silver dihydrogen citrate compositions” (priority 2004, published 2006)",
  "key": {"[1]": {"system": "Malessezia furfur (DSM 6171)", "conditions": "test solutions 100 ppm Ag^+ in water at pH 7.0 (adjusted with NaOH)", "text": "(§1) In the Table 58, test solutions contained 100 ppm Ag^+ in water at pH 7.0 (adjusted with NaOH)."}, "[2]": {"system": "Epidermophyton floccosum DSM 10709", "conditions": "test solutions 100 ppm Ag^+ in water at pH 7.0 (adjusted with NaOH)", "text": "as §1"}, "[3]": {"system": "Trichophyton rubrum (ATCC 10218)", "conditions": "test solutions 100 ppm Ag^+ in water at pH 7.0 (adjusted with NaOH)", "text": "as §1"}, "[4]": {"system": "Candida albicans (ATCC 10231)", "conditions": "test solutions 100 ppm Ag^+ in water at pH 7.0 (adjusted with NaOH)", "text": "as §1"}, "[5]": {"system": "Chaetomium globosum (ATCC 6205)", "conditions": "test solutions 100 ppm Ag^+ in water at pH 7.0 (adjusted with NaOH)", "text": "as §1"}, "[6]": {"system": "Trichophyton mentagrophytes (ATCC 9533)", "conditions": "test solutions 100 ppm Ag^+ in water at pH 7.0 (adjusted with NaOH)", "text": "as §1"}, "[7]": {"system": "Propionibacterium acnes (ATCC 6919)", "conditions": "test solutions 100 ppm Ag^+ in water at pH 7.0 (adjusted with NaOH)", "text": "as §1"}, "[8]": {"system": "Corynebacterium minutissimum (ATCC 23348)", "conditions": "test solutions 100 ppm Ag^+ in water at pH 7.0 (adjusted with NaOH)", "text": "as §1"}, "[9]": {"system": "Escherichia coli (ATCC 10536)", "conditions": "test solutions contained 100 ppm Ag^+ in 5% citric acid solution at pH 7.0 (adjusted with NaOH)", "text": "(§2) In the Table 57, test solutions contained 100 ppm Ag^+ in 5% citric acid solution at pH 7.0 (adjusted with NaOH)."}, "[10]": {"system": "Corynebacterium xerosis (ATCC 373)", "text": "as §2"}, "[11]": {"system": "Pseudomonas aeruginosa (ATCC 15442)", "conditions": "test solutions contained 100 ppm Ag^+ in 5% citric acid solution at pH 7.0 (adjusted with NaOH)", "text": "as §2"}, "[12]": {"system": "Staphylococcus aureus (ATCC 6538)", "conditions": "test solutions contained 100 ppm Ag^+ in 5% citric acid solution at pH 7.0 (adjusted with NaOH)", "text": "as §2"}, "[13]": {"conditions": "in a mixture of anion, non-ionic and amphoteric surfactants"}, "[14]": {"system": "bacteria, fungi and viruses"}, "[15]": {"system": "several varieties of bacteria", "text": "as §2, §1"}},
  "note": "Like-named read-outs stand apart in the source and are kept apart here.",
  "data": [
    {"smiles": "O=C(O)CC(O)(CC(=O)O)C(=O)[O-].[Ag+]", "note": "[Silver dihydrogen citrate, silver dihydrogen citrate]", "values": [
      {"measurement": "Minimum Inhibitory Concentration (MIC)", "setting": "[1]", "result": 6.0, "unit": "μg/ml Ag^+"},
      {"measurement": "Minimum Inhibitory Concentration (MIC)", "setting": "[2]", "result": "12-48 μg/ml Ag^+"},
      {"measurement": "Minimum Inhibitory Concentration (MIC)", "setting": "[3]", "result": "12-48 μg/ml Ag^+"},
      {"measurement": "Minimum Inhibitory Concentration (MIC)", "setting": "[4]", "result": 3.0, "unit": "μg/ml Ag^+"},
      {"measurement": "Minimum Inhibitory Concentration (MIC)", "setting": "[5]", "result": "12-24 μg/ml Ag^+"},
      {"measurement": "Minimum Inhibitory Concentration (MIC)", "setting": "[6]", "result": "12-24 μg/ml Ag^+"},
      {"measurement": "Minimum Inhibitory Concentration (MIC)", "setting": "[7]", "result": 6.0, "unit": "μg/ml Ag^+"},
      {"measurement": "Minimum Inhibitory Concentration (MIC)", "setting": "[8]", "result": 3.0, "unit": "μg/ml Ag^+"},
      {"measurement": "Minimum Inhibitory Concentration (MIC)", "setting": "[9]", "result": 2.0, "unit": "μg/ml Ag^+"},
      {"measurement": "Minimum Inhibitory Concentration (MIC)", "setting": "[10]; Corynebacterium xerosis (ATCC 373), test solutions 100 ppm Ag^+ in water at pH 7.0 (adjusted with NaOH)", "result": 3.0, "unit": "μg/ml Ag^+"},
      {"measurement": "Minimum Inhibitory Concentration (MIC)", "setting": "[10]; test solutions contained 100 ppm Ag^+ in 5% citric acid solution at pH 7.0 (adjusted with NaOH)", "result": 2.0, "unit": "μg/ml Ag^+"},
      {"measurement": "Minimum Inhibitory Concentration (MIC)", "setting": "[11]", "result": 4.0, "unit": "μg/ml Ag^+"},
      {"measurement": "Minimum Inhibitory Concentration (MIC)", "setting": "[12]", "result": 4.0, "unit": "μg/ml μg/ml Ag^+"},
      {"measurement": "time-wise stability of the antimicrobial activity", "setting": "[13]", "result": "stable and showed good preservation"},
      {"measurement": "antimicrobial activity (in words)", "setting": "[14]", "result": "antimicrobial activity against a variety of microbes"},
      {"measurement": "effect on several varieties of bacteria (in words)", "setting": "[15]", "result": "bacteriostatic"}
    ]}
  ]
}
